Measured values published in patent EP0321175A1, “Indane derivatives” (BEECHAM GROUP PLC, priority 1987, dated 1989).

Tests used:
[1] = test system: guinea pig tracheal spiral preparations; assay: Bronchodilation in vitro; guinea pig tracheal spiral preparations; type: cell-based; details: relative to total relaxation evoked in the presence of 10⁻³M isoprenaline; for Emax: Cavia porcellus, read-out: I.A. (Intrinsic Activity, efficacy)
Procedure: Male guinea pigs (300-600g) were stunned by a blow to the head and bled from the carotid artery. The trachea was exposed, dissected free of connective tissue, and transferred to oxygenated krebs solution at 37°C. Next, spirals (2 per trachea) were prepared by cutting the whole trachea spirally along its longitudinal axis and then dividing this spiral lengthwise. Each preparation was mounted, using silk thread, in a 10ml organ bath filled with krebs solution at 37°C and bubbled with 5% CO₂ with O₂. The resting tension of the preparations was set at 2g and changes in muscle tension were monitored isometrically by means of a UFI (2oz) force and displacement transducer (Ormed Ltd) connected to a Linseis pen recorder. All preparations were allowed to equilibrate for 60 minutes. During this equilibration period the preparations were washed by upward displacement at 15 minute intervals and, if necessary, the resting tension was readjusted to 2g using a mechanical micromanipulator system.
Once a steady resting tension had been obtained, the preparations were dosed cumulatively with the test compound (10⁻⁸-2x10⁻⁵M), and finally a maximum relaxation achieved by addition of 10⁻³M isoprenaline. The fall in tension evoked by the test compound was expressed as a percentage of the total relaxation evoked in the presence of 10⁻³M isoprenaline. Appropriate concentration-relaxation curves were then constructed and values for potency (IC₅₀) and efficacy (Intrinsic Activity, I.A.) were obtained.
The compositions of Krebs solution is: sodium chloride 118.07mM, sodium hydrogen carbonate 26.19mM, potassium chloride 4.68mM, potassium orthophosphate 1.18mM, magnesium sulphate septahydrate 1.8mM and calcium chloride 2.52mM;pH ca. 7.45.

[2] = test system: Spontaneously hypertensive rats; assay: Blood pressure lowering activity, tail cuff method; type: in vivo
Procedure: Systolic blood pressure were recorded by a modification of the tail cuff method described by I.M. Claxton, M.G. Palfreyman, R.H. Poyser, R.L. Whiting, European Journal of Pharmacology, 37, 179 (1976). A W+W BP recorder, model 8005 was used to display pulses.Prior to all measurements rats were placed in a heated environment (33.5 ± 0.5°C) before transfer to a restraining cage. Each determination of blood pressure was the mean of at least 6 readings. Spontaneously hypertensive rats (ages 12-18 weeks) with systolic blood pressures >180 mmHg were considered hypertensive.

Compound	Emax [1] [%]	% change in systolic B.P. ([2]; 1 mg/kg p.o., 1 h post dose)	% change in systolic B.P. ([2]; 1 mg/kg p.o., 2 h post dose)	% change in systolic B.P. ([2]; 1 mg/kg p.o., 4 h post dose)	other results
C[C@@H]1CCC(=O)N1[C@@H]1c2cc([N+](=O)[O-])ccc2C(C)(C)[C@H]1O (mixture of isomers) [Example 26, Trans-1,1-Dimethyl-5-nitro-3-(5-(R)-methyl-2-oxopyrrolidin-1-yl)indan-2-ol]	98				
CC1(C)c2ccc([N+](=O)[O-])cc2[C@@H](N2CCCC2=O)[C@@H]1O (relative stereo) [Example 1, trans - 1,1-dimethyl-5-nitro-3-(2-oxopyrrolidin-1-yl)-indan-2-ol]	88				% change in systolic B.P. ([2]; 10 mg/kg p.o., 1 h post dose): -48 ± 4(n=4) %; % change in systolic B.P. ([2]; 10 mg/kg p.o., 2 h post dose): -49 ± 6(n=3) %; % change in systolic B.P. ([2]; 10 mg/kg p.o., 4 h post dose): -42 ± 4(n=6) %; % change in systolic B.P. ([2]; 10 mg/kg p.o., 6 h post dose): -30 ± 4(n=6) %
CC1(C)c2ccc([N+](=O)[O-])cc2[C@@H](N2CCCCC2=O)[C@@H]1O (relative stereo) [Example 3, Trans 1,1-Dimethyl-5-nitro-3-(2-oxopiperidin-1-yl) indan-2-ol]	89	-33 ± 5 (n=5) %	-17 ± 3 (n=4) %	-22 ± 4 (n=6) %	% change in systolic B.P. ([2]; 1 mg/kg p.o., 6 h post dose): -19 ± 5 (n=6) %
CC1(C)c2ccc(N)cc2[C@@H](n2ccccc2=O)[C@@H]1O (relative stereo) [Example 9, Trans-5-amino-1,1-dimethyl-3-(2-pyridon-1-yl)indan-2-ol]					% change in systolic B.P. ([2]; 3 mg/kg p.o., 1 h post dose): -12 ± 2%; % change in systolic B.P. ([2]; 3 mg/kg p.o., 2 h post dose): -16 ± 3%; % change in systolic B.P. ([2]; 3 mg/kg p.o., 4 h post dose): -14 ± 4%; % change in systolic B.P. ([2]; 3 mg/kg p.o., 6 h post dose): -11 ± 2%
CCc1ccc2c(c1)[C@@H](N1CCCCC1=O)[C@H](O)C2(C)C (relative stereo) [Example 17, Trans-1,1-Dimethyl-5-ethyl-3-(2-oxopiperidin-1-yl)indan-2-ol]	76				
CCc1ccc2c(c1)[C@@H](n1ccccc1=O)[C@H](O)C2(C)C (relative stereo) [Example 23, Trans 1,1-Dimethyl-5-ethyl-3-(2-pyridon-1-yl)indan-2-ol]					I.A. (Intrinsic Activity, efficacy) [1]: 0.92
CC1(C)C=C(N2CCCCC2=O)c2cc([N+](=O)[O-])ccc21 [Example 4, 1,1-dimethyl-5-nitro-3-(2-oxopiperidin-1-yl)ind-2-ene]	94				
CC1(C)c2ccc([N+](=O)[O-])cc2[C@@H](n2ccccc2=O)[C@@H]1O [Example 5, Trans-1,1-dimethyl-5-nitro-3-(2-pyridon-1-yl)indan-2-ol]	91	-40 (n=1) %	-43 (n=1) %	-43 ± 4 (n=1) %	% change in systolic B.P. ([2]; 1 mg/kg p.o., 6 h post dose): -31 ± 5 (n=5) %
CC1(C)C=C(n2ccccc2=O)c2cc([N+](=O)[O-])ccc21 [Example 6, 1,1-Dimethyl-5-nitro-3-(2-pyridon-1-yl)ind-2-ene]	95	-18 ± 3%	-18 ± 3%	-13 ± 3%	
CC1(C)c2ccc(C#N)cc2[C@@H](n2ccccc2=O)[C@@H]1O [Example 7, Trans-5-cyano-1,1-dimethyl-3-(2-pyridon-1-yl)-indan-2-ol]	81	-31 ± 3%	-22 ± 4%	-20 ± 4%	% change in systolic B.P. ([2]; 1 mg/kg p.o., 6 h post dose): -12 ± 6%
CC1(C)C=C(n2ccccc2=O)c2cc(C#N)ccc21 [Example 8, 5-Cyano-1,1-dimethyl-3-(2-pyridon-1-yl)ind-2-ene]	77	-12 ± 5%	-15 ± 3%	-26 ± 8%	% change in systolic B.P. ([2]; 1 mg/kg p.o., 6 h post dose): -21 ± 2%
O=C(N[C@@H]1c2cc([N+](=O)[O-])ccc2C[C@H]1O)c1ccc(F)cc1 [Example 10, Trans-1-N-(4-fluorobenzamido)-6-nitroindan-2-ol]	59				
CC1(C)C=C(N2CCCCC2=O)c2ccc(C(F)(F)F)cc21 [Example 16, 1,1-dimethyl-3-(2-oxopiperidin-1-yl)-6-trifluoromethylind-2-ene]	89				
CC1(C)C=C(CN2CCCC2=O)c2cc(C#N)ccc21 [Example 24, 5-Cyano-1,1-dimethyl-3-[(2-oxopyrrolidin-1-yl)methyl]ind-2-ene]	59				
C[C@@H]1CCC(=O)N1C1=CC(C)(C)c2ccc([N+](=O)[O-])cc21 [Example 27, 1,1-dimethyl-5-nitro-3-(5-(R)-methyl-2-oxopyrrolidin-1-yl)ind-2-ene]	93				
